Reference: patent US20120322819A1, “COMPOUND CONTAINING A NOVEL 4-ALKOXYPYRIMIDINE STRUCTURE AND MEDICINE CONTAINING SAME” (KOWA COMPANY, LTD., priority 2010, published 2012)

Assays:
[1] = molecular target: T1, angiotensin II type 1 receptor (Oryctolagus cuniculus, UniProt P34976); assay: Angiotensin II antagonistic activity in isolated rabbit blood vessels (angiotensin II-induced contraction of thoracic aorta ring); details: angiotensin II (10 nM)-induced contraction, compound 1 nmol/L to 10 μmol/L, 37° C., read-out: IC50 (50% inhibition concentration of angiotensin II-induced contraction)
T1 construct: By using a specimen of isolated rabbit blood vessels; from tissue; host or cells: rabbit thoracic aorta ring (New Zealand White, male)
T1 sequence (P34976 1-359): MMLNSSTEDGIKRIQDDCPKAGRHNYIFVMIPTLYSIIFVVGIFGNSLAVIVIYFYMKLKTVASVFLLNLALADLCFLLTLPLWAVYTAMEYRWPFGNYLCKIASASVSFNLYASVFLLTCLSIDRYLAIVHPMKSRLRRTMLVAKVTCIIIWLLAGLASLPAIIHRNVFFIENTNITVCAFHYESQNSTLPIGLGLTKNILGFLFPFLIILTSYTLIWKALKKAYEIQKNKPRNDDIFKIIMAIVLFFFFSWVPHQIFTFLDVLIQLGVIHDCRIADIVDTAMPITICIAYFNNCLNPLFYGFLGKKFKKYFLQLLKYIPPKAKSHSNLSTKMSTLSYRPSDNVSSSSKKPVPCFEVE
Description: Angiotensin II Antagonistic Activity in Isolated Rabbit Blood Vessels
By using a specimen of isolated rabbit blood vessels, antagonistic activity of the compounds of the invention against angiotensin II type 1 receptor was estimated from a dose-response curve of angiotensin II-induced blood vessel contraction. Specifically, the specimen of thoracic aorta ring of a rabbit (New Zealand White: male, 2.4 to 3.0 kg) was suspended in a magnus bath filled with Krebs-Henseleite buffer (composition: 118 mM NaCl, 4.7 mM KCl, 2.55 mM CaCl2, 1.18 mM MgSO4, 1.18 mM KH2PO4, 24.88 mM NaHCO3, and 11.1 mM D-glucose), and angiotensin II (10 nM)-induced contraction was obtained in the presence of the compounds of each example (1 nmol/L to 10 μmol/L). During the measurement, the inside temperature of the magnus bath was maintained at 37° C. and the bath was continuously ventilated with a sufficient amount of mixed gas (95% O2 and 5% CO2). The angiotensin II-induced contraction was converted into a relative value (%) that is based on the angiotensin II (10 nM)—induced contraction in the absence of the compounds of each example. From the concentration-response curve obtained therefrom, 50% inhibition concentration (IC50 value) was calculated by using SAS Preclinical Package Ver 5.0 (trade name, manufactured by SAS institute Japan Co., Tokyo, Japan), which is a statistical analysis program.

human PPARγ2 = molecular target: T2, human PPARγ2 (Homo sapiens, UniProt P37231); assay: PPARγ activation activity, Gal4-PPARγ2 LBD chimera luciferase transfection assay in COST cells; type: cell-based; details: Gal4 (aa 1-147)/human PPARγ2 LBD (aa 182-505) chimera, luciferase reporter, 16 hours, rosiglitazone (3 to 10 μmol/L) = 100%, read-out: EC50 (50% effective concentration, PPARγ activation)
T2 construct: the amino acids 182 to 505 of human PPARγ2; expressed in transfected cells; host or cells: COST cells (so in the source)
T2 sequence (P37231 182-505): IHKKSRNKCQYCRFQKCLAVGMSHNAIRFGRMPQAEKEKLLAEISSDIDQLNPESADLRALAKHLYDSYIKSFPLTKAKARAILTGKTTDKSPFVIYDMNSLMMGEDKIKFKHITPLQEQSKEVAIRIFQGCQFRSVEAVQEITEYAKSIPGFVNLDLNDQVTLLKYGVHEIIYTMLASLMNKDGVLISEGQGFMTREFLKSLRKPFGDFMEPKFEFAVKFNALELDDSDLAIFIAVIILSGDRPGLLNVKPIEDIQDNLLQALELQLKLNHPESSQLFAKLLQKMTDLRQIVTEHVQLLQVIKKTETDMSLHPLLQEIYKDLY
Method: PPARγ Activation Activity
The agonistic activity of the compounds of the invention on PPARγ was measured based on the transfection assay using COST cells (DS Pharma Biomedical Co., Ltd., Osaka, Japan), which are the cell line derived from the kidney of the African green monkey. COST cells were cultured under 5% CO2 concentration, and DMEM medium containing 10% fetal bovine serum, glutamic acid, and antibiotics was used as a medium.
As an expression vector, a chimera in which DNA binding domain of Ga14, which is a yeast transcription factor, and ligand binding domain of human PPARγ2 are fused, i.e., a fused product between the amino acids 1 to 147 of Gal4 transcription factor and the amino acids 182 to 505 of human PPARγ2, was used. Furthermore, as a reporter vector, a firefly luciferase containing five copies of Gal4 recognition sequence in the promoter region was used. Plasmid transfection to the cells was performed according to a method which uses jetPEI (trade name, manufactured by Funakoshi Co., Ltd., Tokyo, Japan). Furthermore, β-galactosidase expression vector was employed as an internal standard.
After the transfection of the cells, the medium was replaced with a DMEM medium (containing 1% serum) added with the test compound, and the cells were further cultured for 16 hours. After that, the luciferase activity and β-galactosidase activity in the cell lysis solution were measured.
For the present test, dimethylsulfoxide (DMSO) was used for dissolution and dilution of the test compounds, and during the cell treatment, the DMSO concentration in DMEM medium (containing 1% serum) was adjusted to 0.1%. As a positive compound, rosiglitazone (trade name, manufactured by ALEXIS Corporation, Switzerland) was used. The percentage (%) of the luciferase activity of the each test compound (1 to 30 μmol/L) was calculated when the luciferase activity of rosiglitazone (3 to 10 μmol/L) is 100% and the luciferase activity in the absence of the test compound is 0%. The 50% effective concentration of the test compound (EC50, 50% effect concentration) was calculated by using SAS Preclinical Package Ver 5.0 (trade name, manufactured by SAS institute Japan Co., Tokyo, Japan), which is a statistical analysis program.

Row | SMILES | IC50 [1] [µM] | EC50 (human PPARγ2) [µM]
1 | CCCCc1nc(C)nc(OCC(=O)OCC)c1Cc1ccc(-c2ccccc2-c2noc(=O)[nH]2)cc1 [Example 1, ethyl 2-{{6-butyl-2-methyl-5-{[2′-(5-oxo-4,5-dihydro-1,2,4-oxadiazol-3-yl)-[1,1′-biphenyl]-4-yl]methyl}pyrimidin-4-yl}oxy}acetate] | 0.81 | 1.05
2 | CCCCc1nc(C)nc(OCC(=O)O)c1Cc1ccc(-c2ccccc2-c2noc(=O)[nH]2)cc1 [Example 2, 2-{{6-butyl-2-methyl-5-{[2′-(5-oxo-4,5-dihydro-1,2,4-oxadiazol-3-yl)-[1,1′-biphenyl]-4-yl]methyl}pyrimidin-4-yl}oxy}acetic acid] | 0.23 | –
3 | CCCCc1nc(C)nc(OCC(=O)NCC)c1Cc1ccc(-c2ccccc2-c2noc(=O)[nH]2)cc1 [Example 4, 2-{{6-butyl-2-methyl-5-{[2′-(5-oxo-4,5-dihydro-1,2,4-oxadiazol-3-yl)-[1,1′-biphenyl]-4-yl]methyl}pyrimidin-4-yl}oxy}-N-ethylacetamide] | 0.29 | –
4 | CCCCc1nc(C)nc(OCC(=O)N(CC)CC)c1Cc1ccc(-c2ccccc2-c2noc(=O)[nH]2)cc1 [Example 5, 2-{{6-butyl-2-methyl-5-{[2′-(5-oxo-4,5-dihydro-1,2,4-oxadiazol-3-yl)-[1,1′-biphenyl]-4-yl]methyl}pyrimidin-4-yl}oxy}-N,N-diethylacetamide] | 0.06 | –
5 | CCCCc1nc(C)nc(OCCCC(=O)OCC)c1Cc1ccc(-c2ccccc2-c2noc(=O)[nH]2)cc1 [Example 6, ethyl 4-{{6-butyl-2-methyl-5-{[2′-(5-oxo-4,5-dihydro-1,2,4-oxadiazol-3-yl)-[1,1′-biphenyl]-4-yl]methyl}pyrimidin-4-yl}oxy}butanoate] | 0.13 | 0.87
6 | CCCCc1nc(C)nc(OCCO)c1Cc1ccc(-c2ccccc2-c2noc(=O)[nH]2)cc1 [Example 15, 3-{4′-{[4-butyl-6-(2-hydroxyethoxy)-2-methylpyrimidin-5-yl]methyl}-[1,1′-biphenyl]-2-yl}-1,2,4-oxadiazol-5(4H)-one] | 0.77 | 1.32
7 | CCCCc1nc(C)nc(OCC(C)=O)c1Cc1ccc(-c2ccccc2-c2noc(=O)[nH]2)cc1 [Example 22, 3-{4′-{[4-butyl-2-methyl-6-(2-oxopropoxy)pyrimidin-5-yl]methyl}-[1,1′-biphenyl]-2-yl}-1,2,4-oxadiazol-5(4H)-one] | 0.1 | 0.95
8 | CCCCc1nc(C)nc(OC(C(=O)O)c2ccccc2)c1Cc1ccc(-c2ccccc2-c2noc(=O)[nH]2)cc1 (stereo not drawn) [Example 26, 2-{{6-butyl-2-methyl-5-{[2′-(5-oxo-4,5-dihydro-1,2,4-oxadiazol-3-yl)-[1,1-biphenyl]-4-yl]methyl}pyrimidin-4-yl}oxy}-2-phenylacetic acid] | 0.38 | 2.92
9 | CCCCc1nc(C)nc(OC(Cc2ccccc2)C(=O)O)c1Cc1ccc(-c2ccccc2-c2noc(=O)[nH]2)cc1 (stereo not drawn) [Example 28, 2-{{6-butyl-2-methyl-5-{[2′-(5-oxo-4,5-dihydro-1,2,4-oxadiazol-3-yl)-[1,1′-biphenyl]-4-yl]methyl}pyrimidin-4-yl}oxy}-3-phenylpropionic acid] | 0.64 | –
10 | CCCCc1nc(C)nc(OCC(=O)N2CCCCC2)c1Cc1ccc(-c2ccccc2-c2noc(=O)[nH]2)cc1 [Example 30] | 0.23 | 1.21
11 | CCCCc1nc(C)nc(OCCOC)c1Cc1ccc(-c2ccccc2-c2noc(=O)[nH]2)cc1 [Example 33, 3-{4′-{[4-butyl-6-(2-methoxyethoxy)-2-methylpyrimidin-5-yl]methyl}-[1,1′-biphenyl]-2-yl}-1,2,4-oxadiazol-5(4H)-one] | 0.48 | 0.92
